# Publication PMC5667422 (Theranostics, 2017)
# System: integrin α2β1 expression in A549 cells
# Experiment: Integrin α2β1 expression in A549 cells after doxorubicin treatment
# Type: cell-based, human
# Conditions: doxorubicin 4 μg/mL
compound,measurement,setting,value
COc1cccc2c1C(=O)c1c(O)c3c(c(O)c1C2=O)C[C@@](O)(C(=O)CO)C[C@@H]3O[C@H]1C[C@H](N)[C@H](O)[C@H](C)O1 [doxorubicin],integrin α2 and β1 protein levels by Western blot after treatment,"48 h, semi-quantitative, p < 0.01",markedly higher level of both integrin proteins
same,integrin α2β1 expression by FACS after treatment,48 h vs wild-type,clear shift in the abundance of integrin α2β1
